Source: patent US11028090B2 (Dong Wha Pharm. Co., Ltd., priority 2017, dated 2021)
Read-outs that look alike come from different tables or passages of the source.

Tests used:
[1] = biological target: BRD4 (BD1+BD2) bromodomain (Homo sapiens (Human), UniProt O60885); assay: BRD4 binding inhibition (AlphaScreen, GST-BRD4 vs tetraacetylated histone H4 peptide)
Method in brief: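 GST-BRD4 (BD1+BD2) and biotinylated tetraacetyl-histone H4 peptide, each at 100 nM in HEPES pH 7.4 buffer with BSA and DTT, were combined with compound. Glutathione acceptor and streptavidin donor beads were added, then incubated 30 min at room temperature in the dark. Read-out was AlphaScreen signal.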

[2] = tested on: acute myelogenous leukemia cells (MV-4-11 cells); assay: Cytotoxicity to acute myelogenous leukemia cells (MV-4-11 cells), CCK-8; settings: Homo sapiens, MV4-11, 72 h
[3] = GST-BRD4 (BD1+BD2) / biotinylated acetyl-histone H4 (Lys5,8,12,16) peptide, read-out: IC50, BRD4 binding inhibition
[4] = GST-BRD4 (BD1+BD2) vs biotinylated acetyl-histone H4 peptide, AlphaScreen, read-out: BRD4 IC50
[5] = read-out: IC50, cytotoxicity against acute myelogenous leukemia cells
[6] = read-out: MV-4-11 Cytotoxicity IC50

Compound | IC50 [1, 3] | IC50 [1, 4] | IC50 [2, 5] | IC50 [2, 6] | IC50 ([1]; IC50, BRD4 binding inhibition, GST-BRD4 (BD1+BD2) / biotinylated acetyl-histone H4 (Lys5,8,12,16) peptide)
COCCOc1ccc2c(c1)nc(NCCCCNC(=O)OC1CCCC1)c1nnc(C)n12 [Example 371, {4-[7-(2-methoxy-ethoxy)-1-methyl-[1,2,4]triazolo[4,3-a]quinoxaline-4-ylamino]-butyl}-carbamic acid cyclopentylester] | ≤ 10 nM | 7 nM | ≤ 200 nM | 119 nM | 
COCCOc1ccc2c(c1)nc(NCCCCNC(=O)Oc1ccccc1)c1nnc(C)n12 [Example 372, {4-[7-(2-methoxy-ethoxy)-1-methyl-[1,2,4]triazolo[4,3-a]quinoxaline-4-ylamino]-butyl}-carbamic acid phenylester] |  |  | ≤ 200 nM | 180 nM | ≤ 10 nM
COCCOc1ccc2c(c1)nc(NCCCCNC(=O)OCc1ccccc1)c1nnc(C)n12 [Example 373, {4-[7-(2-methoxy-ethoxy)-1-methyl-[1,2,4]triazolo[4,3-a]quinoxaline-4-ylamino]-butyl}-carbamic acid benzylester] | ≤ 50 nM | 20 nM |  | 420 nM | 
COCCOc1ccc2c(c1)nc(NCCCCNC(=O)C(C)(C)C)c1nnc(C)n12 [Example 375, {4-[7-(2-methoxy-ethoxy)-1-methyl-[1,2,4]triazolo[4,3-a]quinoxaline-4-ylamino]-butyl}-2,2-dimethyl-propionamide] | ≤ 50 nM |  |  | 400 nM | 
COCCOc1ccc2c(c1)nc(NCCCCNC(=O)C=C(C)C)c1nnc(C)n12 [Example 378, 3-methyl-butene-2-oic acid-{4-[7-(2-methoxy-ethoxy)-1-methyl-[1,2,4]triazolo[4,3-a]quinoxaline-4-ylamino]-butyl}-amide] | ≤ 50 nM | 14 nM |  | 290 nM | 
C/C=C/C(=O)NCCCCNc1nc2cc(OCCOC)ccc2n2c(C)nnc12 [Example 379, butene-2-oic acid{4-[7-(2-methoxy-ethoxy)-1-methyl-[1,2,4]triazolo[4,3-a]quinoxaline-4-ylamino]-butyl}-amide] | ≤ 50 nM | 17 nM |  | 420 nM | 
CCC(C)C(=O)NCCCCNc1nc2cc(OCCOC)ccc2n2c(C)nnc12 (stereo not shown) [Example 380, N-{4-[7-(2-methoxy-ethoxy)-1-methyl-[1,2,4]triazolo[4,3-a]quinoxaline-4-ylamino]-butyl}-2-methyl-butyramide] | ≤ 50 nM | 13 nM |  | 610 nM | 
CCC(CC)C(=O)NCCCCNc1nc2cc(OCCOC)ccc2n2c(C)nnc12 [Example 381, 2-ethyl-N-{4-[7-(2-methoxy-ethoxy)-1-methyl-[1,2,4]triazolo[4,3-a]quinoxaline-4-ylamino]-butyl}-butyramide] | ≤ 50 nM | 14 nM | ≤ 200 nM | 200 nM | 
COCCOc1ccc2c(c1)nc(NCCCCNC(=O)CC(C)(C)C)c1nnc(C)n12 [Example 382, N-{4-[7-(2-methoxy-ethoxy)-1-methyl-[1,2,4]triazolo[4,3-a]quinoxaline-4-ylamino]-butyl}-3,3-dimethyl-butyramide] | ≤ 10 nM | 5 nM |  | 840 nM | 
COCCOc1ccc2c(c1)nc(NCCCCNC(=O)CCC(C)C)c1nnc(C)n12 [Example 383, 4-methyl-pentanoic acid{4-[7-(2-methoxy-ethoxy)-1-methyl-[1,2,4]triazolo[4,3-a]quinoxaline-4-ylamino]-butyl}-amide] | ≤ 10 nM | 3 nM | ≤ 200 nM | 73 nM | 
COCCOc1ccc2c(c1)nc(NCCCCNC(=O)[C@H](O)C(C)C)c1nnc(C)n12 [Example 388, 2-(R)-hydroxy-N-{4-[7-(2-methoxy-ethoxy)-1-methyl-[1,2,4]triazolo[4,3-a]quinoxaline-4-ylamino]-butyl}-3-methyl-butyramide] | ≤ 10 nM | 6 nM | ≤ 200 nM | 55 nM | 
COCCOc1ccc2c(c1)nc(NCCCCNC(=O)[C@@H](O)C(C)C)c1nnc(C)n12 [Example 389, 2-(S)-hydroxy-N-{4-[7-(2-methoxy-ethoxy)-1-methyl-[1,2,4]triazolo[4,3-a]quinoxaline-4-ylamino]-butyl}-3-methyl-butyramide] | ≤ 10 nM | 2 nM | ≤ 200 nM | 79 nM | 
CCC(F)(F)C(=O)NCCCCNc1nc2cc(OCCOC)ccc2n2c(C)nnc12 [Example 391, 2,2-difluoro-N-{4-[7-(2-methoxy-ethoxy)-1-methyl-[1,2,4]triazolo[4,3-a]quinoxaline-4-ylamino]-butyl}-butyramide] | ≤ 10 nM | 5 nM | ≤ 200 nM | 200 nM | 
COCCOc1ccc2c(c1)nc(NCCCCNC(=O)CCC1CCCC1)c1nnc(C)n12 [Example 393, 3-cyclopentyl-N-{4-[7-(2-methoxy-ethoxy)-1-methyl-[1,2,4]triazolo[4,3-a]quinoxaline-4-ylamino]-butyl}-propionamide] | ≤ 10 nM | 3 nM | ≤ 200 nM | 170 nM | 
COCCOc1ccc2c(c1)nc(NCCCCNC(=O)C(NC(=O)OC(C)(C)C)C(C)C)c1nnc(C)n12 (stereo not shown) [Example 396, (1-{4-[7-(2-methoxy-ethoxy)-1-methyl-[1,2,4]triazolo[4,3-a]quinoxaline-4-ylamino]-butylcarbamoyl}-2-methyl-propyl)-carbamic acid-tert-butylester] | ≤ 10 nM | 7 nM |  | 760 nM | 
COCCOc1ccc2c(c1)nc(NCCCCNC(=O)[C@@H](NC(=O)OCC(C)C)C(C)C)c1nnc(C)n12 [Example 398, (S)-(1-{4-[7-(2-methoxy-ethoxy)-1-methyl-[1,2,4]triazolo[4,3-a]quinoxaline-4-ylamino]-butylcarbamoyl}-2-methyl-propyl)-carbamic acid isobutylester] | ≤ 10 nM | 1 nM |  | 790 nM | 
CCCOC(=O)N[C@H](C(=O)NCCCCNc1nc2cc(OCCOC)ccc2n2c(C)nnc12)C(C)C [Example 399, (S)-(1-{4-[7-(2-methoxy-ethoxy)-1-methyl-[1,2,4]triazolo[4,3-a]quinoxaline-4-ylamino]-butylcarbamoyl}-2-methyl-propyl)-carbamic acid propylester] | ≤ 10 nM | 1 nM |  | 570 nM | 
COCCOc1ccc2c(c1)nc(NCCCCNC(=O)[C@@H](NC(=O)OC(C)C)C(C)C)c1nnc(C)n12 [Example 400, (S)-(1-{4-[7-(2-methoxy-ethoxy)-1-methyl-[1,2,4]triazolo[4,3-a]quinoxaline-4-ylamino]-butylcarbamoyl}-2-methyl-propyl)-carbamic acid isopropylester] | ≤ 10 nM | 1 nM |  | 200 nM | 
COCCOc1ccc2c(c1)nc(NCCCCNC(=O)Cc1cccs1)c1nnc(C)n12 [Example 406, N-{4-[7-(2-methoxy-ethoxy)-1-methyl-[1,2,4]triazolo[4,3-a]quinoxaline-4-ylamino]-butyl}-2-thiophene-2-yl-acetamide] | ≤ 50 nM | 14 nM | ≤ 200 nM | 19 nM | 
COCCOc1ccc2c(c1)nc(NCCCCNC(=O)Cc1ccco1)c1nnc(C)n12 [Example 407, 2-furan-2-yl-N-{4-[7-(2-methoxy-ethoxy)-1-methyl-[1,2,4]triazolo[4,3-a]quinoxaline-4-ylamino]-butyl}-acetamide] | ≤ 10 nM | 7 nM |  | 180 nM | 
COCCOc1ccc2c(c1)nc(NCCCCNC(=O)c1ccccc1)c1nnc(C)n12 [Example 408, N-{4-[7-(2-methoxy-ethoxy)-1-methyl-[1,2,4]triazolo[4,3-a]quinoxaline-4-ylamino]-butyl}-benzamide] | ≤ 50 nM | 13 nM |  | 620 nM | 
COCCOc1ccc2c(c1)nc(NCCCCNC(=O)c1ccccc1F)c1nnc(C)n12 [Example 409, 2-fluoro-N-{4-[7-(2-methoxy-ethoxy)-1-methyl-[1,2,4]triazolo[4,3-a]quinoxaline-4-ylamino]-butyl}-benzamide] | ≤ 10 nM | 9 nM |  | 380 nM | 
COCCOc1ccc2c(c1)nc(NCCCCNC(=O)c1cccc(F)c1)c1nnc(C)n12 [Example 410, 3-fluoro-N-{4-[7-(2-methoxy-ethoxy)-1-methyl-[1,2,4]triazolo[4,3-a]quinoxaline-4-ylamino]-butyl}-benzamide] | ≤ 50 nM | 12 nM |  | 790 nM | 
COCCOc1ccc2c(c1)nc(NCCCCNC(=O)c1ccccc1Cl)c1nnc(C)n12 [Example 411, 2-chloro-N-{4-[7-(2-methoxy-ethoxy)-1-methyl-[1,2,4]triazolo[4,3-a]quinoxaline-4-ylamino]-butyl}-benzamide] | ≤ 50 nM | 19 nM | ≤ 200 nM | 150 nM | 
COCCOc1ccc2c(c1)nc(NCCCCNC(=O)c1cccc(Cl)c1Cl)c1nnc(C)n12 [Example 413, 2,3-dichloro-N-{4-[7-(2-methoxy-ethoxy)-1-methyl-[1,2,4]triazolo[4,3-a]quinoxaline-4-ylamino]-butyl}-benzamide] | ≤ 10 nM |  |  | 190 nM | 
COCCOc1ccc2c(c1)nc(NCCCCNC(=O)c1ccccc1OC)c1nnc(C)n12 [Example 414, 2-methoxy-N-{4-[7-(2-methoxy-ethoxy)-1-methyl-[1,2,4]triazolo[4,3-a]quinoxaline-4-ylamino]-butyl}-benzamide] | ≤ 50 nM | 16 nM |  | 630 nM | 
